Consider 4 compounds from patent publication US9642835B2, “Modulators of GTPase and use in relevant treatment” (STC.UNM, priority 2010, dated 2017).

One experiment has as its target Cdc42 (Homo sapiens, UniProt P60953). Description: Fluorescent-GTP binding to Cdc42 (p38 inhibitor control).
The subject of experiment [1] is Cdc42, Rab2, Rab7, activated Rac1Q61L, Rac1, and H-Ras. Description: Multiplexed primary screen, fluorescent GTP binding. The following applies: 10 μM compound. Here is the method: Multiplex screening was performed by measuring GTP-binding activities of six GTPases (Cdc42, Rab2, Rab7, activated Rac1Q61L, Rac1, and H-Ras) simultaneously using special glutathione (GSH) bead sets having varied fluorescence intensities at a fixed wavelength^38. Individual GST-GTPase chimeras were tested against approximately 200,000 small molecules from the Molecular Libraries Small Molecule Repository (MLSMR). Results of fluorescent GTP-binding from the entire primary screen are summarized in the open access Pubchem database as required for projects conducted under the Roadmap Initiative (AID 757-761, 764). […] In total 1877 compounds/194,635 were identified as activators or inhibitors in the primary screen. On the order of 100-500 compounds were found active per GTPase target, enabling an unprecedented, comprehensive evaluation of small molecules active against various Ras-related GTPase family members. Here we report one compound active specifically on Cdc42 and structure activity relationships determined through chemical synthesis.
Multiplex analysis of small GTPases, were performed as we have described previously {Surviladze, 2009}. […] Flow cytometric light scatter and fluorescence emission at 530+/−20 nm (FL1) and 665+/−10 nm (FL8) were collected on a Cyan ADP flow cytometer (Beckman Coulter, Fullerton, Calif.). The resulting time-dependent data (one file per plate) were analyzed using IDLQuery software to determine the compound activity in each well. […] Gating based on FL8 emission distinguishes the beads coated with different proteins, and the median fluorescence per bead population was calculated. […]
For detection of GTP binding to small G-proteins we used bead-based multiplex flow cytometry assay {Surviladze, 2009}. […] Six individual GST-GTPases representative of Rho, Ras and Rab branches of the Ras-related GTPase family (Cdc42 wt, Rac1 wt, Rac1Q61L, Rab2 wt, Rab7 wt, and H-Ras wt) were first bound to GSH-beads of a particular fluorescence intensity. […]

The next experiment deals with T1, wild-type Cdc42 (Homo sapiens, UniProt P60953).
T1 construct: purchased Cytoskeleton
The experiment in a line: Equilibrium binding assay of BODIPY-FL-GTP. The following applies: 1.5 nM substrate, 1 mM MgCl2; read-out: IC50, inhibition of fluorescent GTP binding to Cdc42 wt. As to the method: Changes in GTP binding affinity (Kd) and Bmax in the presence of a given compound were measured in multiplex (Cdc42, Cdc42Q61L, Rab2, Rab7, H-Ras and H-RasG12V) and single-plex formats (Rac1, Rac1Q61L and GST-GFP). GTPases and the GST-GFP control were individually bound to glutathione beads overnight at 4° C., washed with HPSE buffer, then resuspended together or assayed individually in the same buffer containing DTT and BSA. Bound GTPases were analyzed by mixing 5 μl protein-bound beads with 2.5-100 nM BODIPY-GTP in a total volume of 10 μl and incubating with rotation at 4° C. for 90 min. DMSO controls and samples treated with 10 μM of each test compound were run in parallel. Bound fluorescent nucleotide was measured using a Cyan ADP flow cytometer. Data were converted to ASCII format using IDLeQuery, exported and analyzed using Prism (GraphPad Software, Inc., San Diego, Calif.) non-linear, one-site binding.
Wild-type GST-Cdc42 (4 μM) was bound to GSH-beads overnight at 4° C. Cdc42 on GSH-beads was depleted of nucleotide by incubating with 10 mM EDTA containing buffer for 20 min at 30° C., washing twice with NP-HPS buffer, then re-suspended in the same buffer containing 1 mM EDTA/or 1 mM MgCl2, 1 mM DTT and 0.1% BSA. […] Samples incubated at 4° C. for 45 min and binding of fluorescent nucleotide to enzyme measured using an Accuri flow cytometer. […]

Experiment [2] addresses T2, Cdc42 GTPase in Swiss 3T3 cells (Mus musculus, UniProt P60766).
T2 construct: endogenous in cells; host or cells: Swiss 3T3 cells
Description: GLISA. The format is cell-based. The following applies: approximately 10 μM. Here is the method:
Swiss 3T3 cells were continuously passaged at subconfluence and used to monitor the capacity of compounds to block stimulus-mediated activation of Cdc42, Rac1 or RhoA in vivo. Commercial GLISA kits customized to capture activated Cdc42, Rac1 or Rho from cell lysates were used per manufacturer's instructions (Cytoskeleton, Inc.). Cells were serum starved by sequentially removing serum over a three day period and treated with DMSO or 10 μM compound in DMSO for 20-30 min. Subsequently samples were treated with EGF (10 ng/ml for Rac1 and 100 ng/ml for Cdc42) for 2 min to activate Rac1 and Cdc42 or 5 U/ml calpeptin for 10 min to activate RhoA. DMSO treated cells were left unstimulated to determine baseline GTPase activation or stimulated without drug treatment to determine maximal GTPase activation. Cell lysates were snap frozen, active Cdc42 and Rac1 were quantified based on a PAK binding assay, active RhoA was quantified based on Rho GTP-binding protein interaction. All assays were performed in 96-well microtiter plates, Purified GTP-bound Cdc42, Rac1, or RhoA served as a standards to calculate ng active GTPase in the lysates.

In another experiment the target is Cdc42 ACT (Cdc42Q61L) (Homo sapiens, UniProt P60953, Q61L). Description: Bead-based flow cytometry dose response, BODIPY-FL-GTP binding. The following applies: Table 6, R3 analogs; read-out: Cdc42 ACT EC50. As to the method: (§1) Bead sets for multiplex assays were custom synthesized by Duke Scientific Corp (Fremont, Calif.), but may now be ordered from Thermo/Fisher. […] Negative controls, contained the bead mixture with fluorescent GTP, 0.5 mM unlabeled GTP as a competitor, and 1% DMSO. […] The resulting time-dependent data (one file per plate) were analyzed using IDLQuery software to determine the compound activity in each well. Gating based on forward scatter (FS) and side scatter (SS) parameters was used to identify singlet bead populations. Gating based on FL8 emission distinguishes the beads coated with different proteins, and the median fluorescence per bead population was calculated. […] Baselines were set to 100% based on measurements from the 1% DMSO containing positive controls as further described in PubChem. {PubChem #72}
(§2) Briefly, compounds were serially diluted 1:3 a total of eight times from a starting concentration of 10 mM giving a 9-point dilution series in DMSO. The final concentrations of inhibitors in the assay ranged from 10 nM to 100 μM. Dose-response analyses were examined in the presence of NP-HPS buffer containing: a) 1 mM EDTA; or b) 1 mM MgCl2. […] For assays with EDTA we used one multiplex (Rab7 wt, Rab2 wt, H-Ras wt, H-RasG12V, Cdc42 wt, and Cdc42Q61L) and 3 single-plexes (for Rac1 wt, Rac1 Q61L and GST-GFP).
(§3) GTPase activators were identified on the basis of an increase in fluorescent GTP-binding.
(§4) In experiments including magnesium, six GST-GTPases were assayed simultaneously in a single multiplex (Rac1 wt, Rac1Q61L, RhoA wt, RhoAL63, Cdc42 wt and Cdc42Q61L) and 1 nM BODIPY-FL-GTP binding was measured in the presence or absence of the serial drug dilution series. Each dose response series was run in duplicate.
For orientation: Flow cytometry measures light scatter and fluorescence of single cells or particles in a stream.

For the next experiment, the target named is T3, Cdc42 WT (Homo sapiens, UniProt P60953).
T3 construct: purchased Cytoskeleton
Described as above. The following applies: Table 6, R3 analogs; for pEC50: read-out: Cdc42 WT EC50; for Emax: read-out: Cdc42 WT Efficacy. Here is the method:
as §1, §2, §3, §4

The structures appear in SMILES notation. pEC50, pIC50: −log10 of the molar value.

T3 sequence (P60953 whole entry): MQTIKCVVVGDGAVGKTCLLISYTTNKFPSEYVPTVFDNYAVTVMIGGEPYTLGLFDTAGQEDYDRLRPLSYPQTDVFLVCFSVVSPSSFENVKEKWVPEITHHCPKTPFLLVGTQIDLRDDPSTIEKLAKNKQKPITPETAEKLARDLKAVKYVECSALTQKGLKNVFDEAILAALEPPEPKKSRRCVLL
T2 sequence (P60766 whole entry): as the sequence (P60953 whole entry) above
Chain of Cdc42 ACT (Cdc42Q61L) (P60953 whole entry Q61L): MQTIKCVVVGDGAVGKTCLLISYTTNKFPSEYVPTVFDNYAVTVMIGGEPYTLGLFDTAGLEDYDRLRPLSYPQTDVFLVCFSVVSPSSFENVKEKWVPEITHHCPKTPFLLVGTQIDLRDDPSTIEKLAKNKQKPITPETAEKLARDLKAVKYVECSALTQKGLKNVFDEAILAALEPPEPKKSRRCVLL
T1 sequence (P60953 whole entry): as the sequence (P60953 whole entry) above
Chain of Cdc42 (P60953 whole entry, species assumed): as the sequence (P60953 whole entry) above

For the compound `Oc1ccc(-c2nc(-c3ccncc3)c(-c3ccc(F)cc3)[nH]2)cc1` [SB 202190], the “Fluorescent-GTP binding to Cdc42” value on Cdc42 is reported as “did not inhibit”.
`COc1ccc(C2CC(c3ccccc3)=NN2c2ccc(S(N)(=O)=O)cc2)cc1OC` (centres unmarked) [MLS000862339]: the “Outcome of primary screening” value in experiment [1] is “specific inhibitors”. Further, the negative-log IC50 (pIC50) on wild-type Cdc42 is 6.40.
As to `Cc1cccc(C2CC(c3ccccc3)=NN2c2ccc(S(N)(=O)=O)cc2)c1` (centres unmarked) [CID 44143700, 4-[3-(3-methylphenyl)-5-phenyl-3,4-dihydropyrazol-2-yl]benzene sulfonamide], the “Inhibition of Cdc42 GTPase in GLISA” value in experiment [2] is “significant response”. Moreover, on Cdc42 ACT (Cdc42Q61L), the pEC50 is 5.28. Besides, on Cdc42 WT, the negative logarithm of the EC50 (pEC50) was 5.30 and the Emax stood at 55%.
For the compound `Cc1ccc(C2CC(c3ccccc3)=NN2c2ccc(S(N)(=O)=O)cc2)cc1` (centres unmarked) [CID 13927310, 4-[3-(4-methylphenyl)-5-phenyl-3,4-dihydropyrazol-2-yl]benzene sulfonamide], in experiment [2], the “Inhibition of Cdc42 GTPase in GLISA” value is “significant response”. Moreover, the pEC50 on Cdc42 ACT (Cdc42Q61L) is 5.30. On Cdc42 WT, the negative-log EC50 (pEC50) was 5.30 and the Emax was 66%.

As a reminder, the pIC50 is the negative decadic logarithm of the IC50, by convention in mol/L. For orientation: pEC50 means the EC50 on a negative log10 scale, so that one unit is a factor of ten.
